Data published in patent US20220213030A1, “AMINOGUANIDINE HYDRAZONES AS RETROMER STABILIZERS USEFUL FOR TREATING NEUROLOGICAL DISEASES” (OSPEDALE SAN RAFFAELE SRL, priority 2019, published 2022).

Assays:
[1] = system: Neuro2a cells transfected with G93A plasmids; assay: LDH-Glo cytotoxicity assay in G93A-transfected Neuro2a; format: cell-based, mouse; details: 10 μM
Experimental: We next assayed cytotoxicity by measuring lactate dehydrogenase (LDH) release with a LDH-Glo™ cytotoxicity assay. Cells were treated with plasmids encoding G93A and the Sh56-RNAi sequence with or without compound 2a, while supernatants were used to measure LDH contents. Overexpression of G93A increased the release of LDH by Neuro2a cells, when compared with cells transfected with LacZ-encoding plasmids or with LacZ+Sh56 plasmids (FIG. 3E). […] On the other hand, LDH release increased when cells received G93A plasmids along with Sh56 plasmids.
LDH cytotoxicity was run on 96 well plates using LDH-Glo™ Cytotoxicity Assay (Promega). Briefly, Neuro2a cells were transfected with plasmids encoding pCMV-LacZ; pcDNA3.1(+)SOD1G93A with or without VPS35 short interfering plasmids (Sh56) or compound 2a (10 μM). After 48 hours, 5 μl of supernatants were 100 fold diluted in LDH storage buffer (Tris-HCl 200 mM, 10% Glycerol, 1% BSA, Sigma-Aldrich) and used to determine LDH, according to manufacturer's recommendations. Maximum LDH Release Control was obtained lysing untreated Neuro2a cells with 2 μL of 10% Triton X-100 (Sigma-Aldrich). In each experiment we calculated % Cytotoxicity=(Exp.LDH Release-Medium Background)/(Max LDH Release Control-Medium Background), and we run parallel positive controls treating cells with 200 μM H2O2.

[2] = system: Vps35, Vps26 and Vps29 mRNA; assay: Real time PCR of CRC genes in Neuro2a; format: cell-based, mouse; details: 10 μM, 48 hours
Experimental: Compound 2a increases the stability of the retromer complex in vitro. We further validated this concept by measuring VPS35 degradation rates by a cycloheximide (CHX) chase assay. Neuro2a cells received vehicle or lead 2a (10 μM) for 24 hours, then CHX was added to the medium, and VPS35 levels were measured by western blot. […] As is the case with R55 (Mecozzi, Berman et al. 2014), compound 2a should not influence the transcription levels of CRC genes in Neuro2a cells.
Lumbar spinal tracts dissected from saline perfused mice or Neuro2a cells were lysed to extract total RNAs using the RNeasy Mini Kit (Qiagen) according to the manufacturer's recommendations, including DNase (Promega) digestion. We synthetized the cDNA using ThermoScript RT-PCR System (Invitrogen) and Random Hexamer (Invitrogen), according to the manufacturer's instructions. The LightCycler 480 System (Roche) and LightCycler 480 SYBR Green I Master Mix (Roche) were used for real-time PCR experiments. Normalization was obtained using the housekeeping gene Histone H3
(H3 F: 5′-[…]-3′ H3 R: 5′-[…]-3′). The following specific primers were used for gene expression analysis: […]

LC3 = assay: pHfluorin-LC3 autophagy assay in Neuro2a clone 7B11; format: cell-based, mouse; details: 48 hours
Experimental: Besides increasing the functionality of lysosomes we hypothesised that compound 2a could also enhance the autophagy system. Therefore we used a pHfluorin-LC3-based assay to monitor the autophagy process in living Neuro2a cells. We have established in our laboratory a Neuro2a stable cell clone (7B11) that expresses the Microtubule-associated protein 1A/1B-light chain 3 (LC3) coupled with the ph-sensitive GFP/phlourin.
Neuro2a-7B11 cells were incubated with increasing concentrations of compound 2a (0.1-100 μM) as well as with the control molecules Bafilomycin Al and Torin-1. After 48 hours the GFP/phluorin signal, which is ph-sensitive, was measured by flow cytometry and fold changes calculated over untreated cells.
Autophagy assay were done using a stable Neuro2a cell clone expressing the pHluorin-mKate2-tagged human LC3 plasmids, Cell clones were generated according our published methods (Mazzocchi 2016). Upon transfection, cells were selected by 400 μg/mL G418 Disulfate Salt Solution (Sigma-Aldrich, St. Louis, Mo.) and further cloned by limiting dilution. […] Neuro2a 7B11 cells were treated with Compound 2a (0.1-100 μM) for 48 hours then MFI levels of the pHfluorin were measured in living cells by flow cytometry.

Sortilin = Sortilin MFI in MNs of G93A mice; format: in vivo, mouse; details: 10 mg/kg, day 100
Excerpt: We next assayed retromer proteins labelling sections of mice sacrificed at day 100 for VPS35 and NeuN. […] Similarly, we observed that VPS26 levels were increased in G93A mice receiving compound 2a (FIG. 11B). We further corroborated our experimental finding observing that compound 2a increased retromer functionality. The cation-independent mannose 6-phosphate receptor (CI-MPR) is a cargo (Arighi et al., 2004) of the retromer complex that is unstable in VPS26 knockout cells (Seaman 2004). We observed a substantial reduction of CI-MPR MFI levels in MNs of vehicle-treated G93A mice when compared with WT litters (FIG. 11C). […]
Fluorescence intensity levels of VPS35, VPS26, Sortilin, CTSD and Ubiquitin were calculated using NHI-Image J software (US National Institutes of Health) according to the following protocol: stacks of confocal images were used to generate the maximal projections (Las-X) and then post-processed by NHI-Image J to crop single NeuN^+ MNs from the ventral horn of the spinal cord. We next performed background (calculated on adjacent slices only receiving secondary antibodies) subtraction for each channel, before applying the NHI-Image J mean filter (with radius 2.0 pixels) to calculate mean NeuN fluorescence levels in individual MN. […] On this selected ROI, we calculated mean fluoresce levels (MFI) of each protein.

[3] = system: lysosomes in Neuro2a cells receiving G93A plasmids; assay: Lyso-tracker analysis of lysosomes in G93A-transfected Neuro2a; format: cell-based, mouse; details: 10 μM, 24 hours of starvation
Experimental: We next determined whether a reduction of VPS35 levels in Neuro2a cells could affect lysosomal homeostasis, mimicking what we and others observed in the ALS mouse model (Cheng 2018). We transfected Neuro2a cells with plasmids encoding the Sh56 RNAi to downregulate VPS35. After 24 hours of starvation, we analyzed the lysosomes using the Lyso-tracker. We observed an enlarged and abnormal distribution of lysosomes in cells with VPS35 interference by Sh56 (FIG. 15A-C). […] We asked whether G93A plasmids would also result in similar lysosomal alterations. We transfected Neuro2a cells with plasmids encoding G93A, with or without compound 2a (10 μM). After 24 hours of starvation, we monitored the lysosomes in such cells with the Lyso-tracker.

Compound: N=C(N)NN=Cc1cccc(C=NNC(=N)N)c1 [Compound 2a, 1,3-Bis-amino guanidine phenyl hydrazone]
- LDH release ([1]; cells transfected with G93A plasmids and Sh56 plasmids): high release of LDH was observed
- LDH release ([1]; cells transfected with G93A plasmids, 48 hours): significantly reduced LDH release
- mRNAs levels of Vps35, Vps26 and Vps29 [2]: did not change
- GFP/phluorin signals (fold changes over untreated cells) (LC3; 0.1 and 1μM): did not change
- GFP/phluorin fluorescence levels (fold changes over untreated cells) (LC3; 10 and 100 μM): significant reduction of fluorescence levels
- Sortilin MFI levels (Sortilin): significantly increased Sortilin levels
- enlarged lysosomes (Lyso-tracker-covered areas) [3]: significantly reverted this phenotype
